Measured values from ChEMBL document CHEMBL3875185, “Structure-anticonvulsant activity studies in the group of (E)-N-cinnamoyl aminoalkanols derivatives monosubstituted in phenyl ring with 4-Cl, 4-CH3 or 2-CH3” (Bioorg Med Chem, 2017).
The source made the active and inactive calls. The rule behind the calls is not given here.

Key:
Rattus norvegicus [1] = test: Anticonvulsant activity in maximal electroshock induced seizure Sprague-Dawley rat model assessed as suppression in hindlimb tonic extension at 30 mg/kg, po measured at 1 hr post dose; format: functional, organism-based
Rattus norvegicus [2] = test: Neurotoxicity in Sprague-Dawley rat assessed as behavioral change at 30 mg/kg, ip measured at 1 hr post dose; format: toxicity, organism-based; conditions: in vivo
Rattus norvegicus [3] = test: Neurotoxicity in Sprague-Dawley rat assessed as behavioral change at 30 mg/kg, ip measured at 4 hrs post dose; format: toxicity, organism-based; conditions: in vivo
Rattus norvegicus [4] = test: Neurotoxicity in Sprague-Dawley rat assessed as behavioral change at 30 mg/kg, ip measured at 0.5 hrs post dose; format: toxicity, organism-based; conditions: in vivo
[5] = Protection index, ratio of TD50 for neurotoxicity in po dosed Sprague-Dawley rat model to ED50 for po dosed pentylenetetrazole induced seizure Sprague-Dawley rat model; format: toxicity, organism-based; conditions: in vivo, read-out: Ratio TD50/ED50
[6] = molecular target: Type-2 angiotensin II receptor (Homo sapiens) (UniProt P50052); test: Displacement of [125I]CGP 42112A from human recombinant AT2 receptor expressed in HEK293 cells at 100 uM measured after 4 hrs by scintillation counting method relative to control; format: cell-based
Sequence of Type-2 angiotensin II receptor (Homo sapiens) (P50052 whole entry): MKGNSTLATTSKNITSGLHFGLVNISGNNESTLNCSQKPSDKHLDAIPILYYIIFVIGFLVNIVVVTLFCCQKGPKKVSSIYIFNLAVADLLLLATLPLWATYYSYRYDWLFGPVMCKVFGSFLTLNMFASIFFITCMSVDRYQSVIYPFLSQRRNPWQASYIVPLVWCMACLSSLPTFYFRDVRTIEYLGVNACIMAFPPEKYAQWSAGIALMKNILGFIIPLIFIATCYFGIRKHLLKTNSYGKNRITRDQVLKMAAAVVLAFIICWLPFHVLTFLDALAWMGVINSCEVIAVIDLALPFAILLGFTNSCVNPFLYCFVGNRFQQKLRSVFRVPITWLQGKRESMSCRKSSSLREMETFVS

Rattus norvegicus [7] = test: Anticonvulsant activity in po dosed pentylenetetrazole induced seizure Sprague-Dawley rat model assessed as no observable episode of clonic convulsion of at least 5 secs by measuring time to peak effect; format: functional
Mus musculus [8] = test: Neurotoxicity in po dosed mouse assessed as induction of motor impairment by measuring time to peak effect by rotarod method; format: toxicity, organism-based; conditions: in vivo
Rattus norvegicus [9] = test: Neurotoxicity in Sprague-Dawley rat assessed as behavioral change at 30 mg/kg, ip measured at […] post dose; format: toxicity, organism-based; conditions: in vivo
Mus musculus [10] = test: Anticonvulsant activity in pentylenetetrazole induced seizure mouse model assessed as no observable episode of clonic convulsion of at least 5 secs at 100 mg/kg, ip measured at 0.5 hrs post dose; format: functional, organism-based
[11] = molecular target: Muscarinic acetylcholine receptor M2 (Homo sapiens) (UniProt P08172); test: Displacement of [3H]AF-DX384 from human recombinant M2 receptor expressed in CHO cells at 100 uM measured after 60 mins by scintillation counting method relative to control; format: cell-based
Sequence of Muscarinic acetylcholine receptor M2 (Homo sapiens) (P08172 whole entry): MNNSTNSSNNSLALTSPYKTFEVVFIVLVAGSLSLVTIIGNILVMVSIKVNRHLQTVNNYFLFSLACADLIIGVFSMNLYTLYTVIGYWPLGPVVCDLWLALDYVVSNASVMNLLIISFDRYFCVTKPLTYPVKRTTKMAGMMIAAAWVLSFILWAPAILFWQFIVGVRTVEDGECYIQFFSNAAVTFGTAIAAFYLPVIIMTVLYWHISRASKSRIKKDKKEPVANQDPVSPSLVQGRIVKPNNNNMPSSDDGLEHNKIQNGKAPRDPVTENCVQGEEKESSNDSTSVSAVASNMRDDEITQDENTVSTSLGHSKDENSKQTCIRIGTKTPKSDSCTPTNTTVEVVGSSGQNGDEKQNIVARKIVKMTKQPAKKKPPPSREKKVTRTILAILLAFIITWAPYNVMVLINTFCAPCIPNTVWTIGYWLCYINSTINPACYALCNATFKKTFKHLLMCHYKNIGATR

[12] = molecular target: Muscarinic acetylcholine receptor M1 (Homo sapiens) (UniProt P11229); test: Displacement of [3H]pirenzepine from human recombinant M1 receptor expressed in CHO cells at 100 uM measured after 60 mins by scintillation counting method relative to control; format: cell-based
Sequence of Muscarinic acetylcholine receptor M1 (Homo sapiens) (P11229 whole entry): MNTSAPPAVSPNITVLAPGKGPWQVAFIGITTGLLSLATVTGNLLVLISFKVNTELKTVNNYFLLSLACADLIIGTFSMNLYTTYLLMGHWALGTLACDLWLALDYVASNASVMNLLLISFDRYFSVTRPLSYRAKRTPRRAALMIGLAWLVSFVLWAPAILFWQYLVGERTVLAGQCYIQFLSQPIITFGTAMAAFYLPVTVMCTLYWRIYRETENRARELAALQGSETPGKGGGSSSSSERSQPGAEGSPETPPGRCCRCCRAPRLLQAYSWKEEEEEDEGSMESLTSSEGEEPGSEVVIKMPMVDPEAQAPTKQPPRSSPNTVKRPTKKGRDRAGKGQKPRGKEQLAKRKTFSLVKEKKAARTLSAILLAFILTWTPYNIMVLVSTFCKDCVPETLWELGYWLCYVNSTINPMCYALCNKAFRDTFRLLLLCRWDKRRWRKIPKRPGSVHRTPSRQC

Mus musculus [13] = test: Anticonvulsant activity in pentylenetetrazole induced seizure mouse model assessed as no observable episode of clonic convulsion of at least 5 secs at 300 mg/kg, ip measured at 4 hrs post dose; format: functional, organism-based
[14] = molecular target: Gastrin/cholecystokinin type B receptor (Homo sapiens) (UniProt P32239); test: Displacement of [125I]CCK-8s from human recombinant CCK2 receptor expressed in CHO cells at 100 uM measured after 60 mins by scintillation counting method relative to control; format: cell-based
Sequence of Gastrin/cholecystokinin type B receptor (Homo sapiens) (P32239 whole entry): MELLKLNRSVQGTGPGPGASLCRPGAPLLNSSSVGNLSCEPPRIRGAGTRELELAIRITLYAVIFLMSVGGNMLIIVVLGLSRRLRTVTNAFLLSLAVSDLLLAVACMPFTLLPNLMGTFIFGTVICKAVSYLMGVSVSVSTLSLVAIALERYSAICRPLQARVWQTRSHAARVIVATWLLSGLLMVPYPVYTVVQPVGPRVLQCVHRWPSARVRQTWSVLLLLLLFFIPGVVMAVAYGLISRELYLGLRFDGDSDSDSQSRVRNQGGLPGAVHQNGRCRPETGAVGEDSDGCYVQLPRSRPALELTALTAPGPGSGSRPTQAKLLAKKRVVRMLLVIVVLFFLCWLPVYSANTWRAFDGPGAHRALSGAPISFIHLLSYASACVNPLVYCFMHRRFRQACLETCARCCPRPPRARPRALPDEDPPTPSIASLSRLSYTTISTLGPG

Rattus norvegicus [15] = species on record: Rattus norvegicus; test: Displacement of [3H]a,b-MeATP from rat urinary bladder P2X receptor at 100 uM measured after 120 mins by scintillation counting method relative to control
Rattus norvegicus [16] = test: Anticonvulsant activity in maximal electroshock induced seizure Sprague-Dawley rat model assessed as suppression in hindlimb tonic extension at 30 mg/kg, ip measured at […] post dose; format: functional, organism-based
Mus musculus [17] = test: Neurotoxicity in mouse assessed as induction of motor impairment at 100 mg/kg, ip measured at 0.5 hrs post dose by rotarod method; format: toxicity, organism-based; conditions: in vivo
Mus musculus [18] = test: Anticonvulsant activity in 6-Hz induced seizure mouse model assessed as restoration of normal activity within 10 secs from stimulation at 100 mg/kg, ip at 44 mA measured at […] post dose; format: functional, organism-based
[19] = molecular target: 5-hydroxytryptamine receptor 3A (Homo sapiens) (UniProt P46098); test: Displacement of [3H]BRL 43694 from human recombinant 5HT3 receptor expressed in CHO cells at 100 uM measured after 120 mins by scintillation counting method relative to control; format: cell-based
Sequence of 5-hydroxytryptamine receptor 3A (Homo sapiens) (P46098 whole entry): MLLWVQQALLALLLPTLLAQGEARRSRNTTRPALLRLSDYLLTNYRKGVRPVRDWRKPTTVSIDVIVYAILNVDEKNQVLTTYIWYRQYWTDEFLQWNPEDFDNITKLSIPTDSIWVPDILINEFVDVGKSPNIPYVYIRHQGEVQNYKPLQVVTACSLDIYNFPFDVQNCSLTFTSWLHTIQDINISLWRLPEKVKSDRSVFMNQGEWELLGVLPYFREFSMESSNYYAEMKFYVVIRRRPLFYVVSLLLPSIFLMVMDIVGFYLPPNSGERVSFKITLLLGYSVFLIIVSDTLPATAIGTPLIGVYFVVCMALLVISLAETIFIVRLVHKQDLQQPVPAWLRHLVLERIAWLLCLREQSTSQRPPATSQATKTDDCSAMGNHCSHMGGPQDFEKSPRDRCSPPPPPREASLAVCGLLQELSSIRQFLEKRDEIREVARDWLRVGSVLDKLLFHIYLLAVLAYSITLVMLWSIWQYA

[20] = molecular target: Galanin receptor type 2 (Homo sapiens) (UniProt O43603); test: Displacement of [125I]galanin from human recombinant GAL2 receptor expressed in CHO cells at 100 uM measured after 120 mins by scintillation counting method relative to control; format: cell-based
Sequence of Galanin receptor type 2 (Homo sapiens) (O43603 whole entry): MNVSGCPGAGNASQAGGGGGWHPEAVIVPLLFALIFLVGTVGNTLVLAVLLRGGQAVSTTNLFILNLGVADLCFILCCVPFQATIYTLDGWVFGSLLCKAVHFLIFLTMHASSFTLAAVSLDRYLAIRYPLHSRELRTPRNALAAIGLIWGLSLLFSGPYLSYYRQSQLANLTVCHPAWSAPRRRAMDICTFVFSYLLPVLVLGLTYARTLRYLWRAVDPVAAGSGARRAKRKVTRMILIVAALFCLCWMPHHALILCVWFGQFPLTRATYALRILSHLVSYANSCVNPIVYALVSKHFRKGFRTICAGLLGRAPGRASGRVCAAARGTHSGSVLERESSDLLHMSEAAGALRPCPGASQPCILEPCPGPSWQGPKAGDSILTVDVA

Rattus norvegicus [21] = test: Anticonvulsant activity in maximal electroshock induced seizure Sprague-Dawley rat model assessed as suppression in hindlimb tonic extension at 30 mg/kg, ip measured at 0.5 hrs post dose; format: functional, organism-based
Rattus norvegicus [22] = test: Neurotoxicity in po dosed Sprague-Dawley rat assessed as behavioral change by measuring time to peak effect; format: toxicity, organism-based; conditions: in vivo

SMILES: Cc1ccccc1/C=C/C(=O)N[C@@H](C)CO
- Activity (Rattus norvegicus [1]): Active
- Activity (Rattus norvegicus [2]): Non-Toxic
- Activity (Rattus norvegicus [3]): Non-Toxic
- Activity (Rattus norvegicus [4]): Non-Toxic
- selectivity ratio [5]: > 7.18
- inhibition [6]: 2.6%
- Time (Rattus norvegicus [7]): 1 h
- Time (Mus musculus [8]): 0.25 h
- Activity (Rattus norvegicus [9]): Non-Toxic

SMILES: CC(O)CNC(=O)/C=C/c1ccc(Cl)cc1 (configuration not stated)
- Activity (Mus musculus [10]): Active
- inhibition [11]: -2.8%
- inhibition [12]: -9.8%
- Activity (Mus musculus [13]): Active
- inhibition [14]: -9.8%

SMILES: CCC(CO)NC(=O)/C=C/c1ccc(Cl)cc1 (configuration not stated)
- inhibition (Rattus norvegicus [15]): -8.2%
- Activity (Rattus norvegicus [16]): Active
- Activity (Mus musculus [17]): Non-Toxic
- Activity (Mus musculus [18]): Active
- inhibition [19]: -1.6%
- inhibition [20]: -7.3%
- Activity (Rattus norvegicus [21]): Active
- Time (Rattus norvegicus [22]): 4 h
